From the NIST ThermoML archive (doi:10.1021/acs.jced.6b00985) come the findings set out here.

The nature of data set [1]: refractive index (Na D-line) (dimensionless). As to conditions: 293.15 K; 101.33 kPa; Liquid; Standard Abbe refractometry.
For data set [2] the following is noted: 293.15 K; 101.33 kPa; Liquid; Vibrating tube method.

Numbers after ± are expanded uncertainties.

In general, refractive index refers to the speed of light in vacuum divided by its phase velocity in the sample. As a reminder, the mass density is mass per unit of volume. For the molecule `CCCCCCC(C)=O` [2-octanone], in data set [1], the refractive index is reported as 1.4151 ± 0.0011. In addition, the mass density in data set [2] is reported as 819.9 ± 8 kg/m3.

In the case of `C1CCCC1` [cyclopentane], the refractive index in data set [1] turned out to be 1.4066 ± 0.0011. In addition, in data set [2], the mass density was determined as 745.7 ± 8 kg/m3.

In the case of `OC1CCCC1` [cyclopentanol], the refractive index in data set [1] was 1.4531 ± 0.0011. The mass density in data set [2] turned out to be 948.7 ± 8 kg/m3.

For `CCCCOC(=O)/C=C\C(=O)OCCCC` [dibutyl cis-butendioate], in data set [1], the refractive index turned out to be 1.4452 ± 0.0012. For the same molecule, the mass density in data set [2] was found to be 990.1 ± 8.2 kg/m3.

`CCC(=O)O` [propanoic acid]: in data set [1], the refractive index is 1.3809 ± 0.0011. Besides, in data set [2], the mass density was found to be 988 ± 8 kg/m3.
